Laboratory results from publication PMC3948622, “Docking, Synthesis and Antiproliferative Activity of N-Acylhydrazone Derivatives Designed as Combretastatin A4 Analogues” (PLoS ONE, 2014).
≈ marks a conversion by molar mass, not a printed value. Like-named read-outs stand apart in the source and are kept apart here.

Assays:
[1] = tested on: HCT-116 (colon carcinoma); assay: Hollow Fiber Assay (HFA), HCT-116 fibers s.c. in mice; type: in vivo, BALB/c nude mice; conditions: 25 mg/kg/day intraperitoneally, 4 days
Procedure: (§1) Cell culture of SF-295 (glioblastoma) and HCT-116 (colon carcinoma) was performed in RPMI 1640 medium supplemented with 10% fetal bovine serum, 2 mM glutamine, at 37°C with 5% CO2.
(§2) Polyvinylidene fluoride (PVDF) HFs with a 1-mm internal diameter and a molecular weight cutoff point of 500 kDa were used (Spectrum Laboratories, Houston, TX). The fibers were cut into pieces 12–15 cm long, washed 2× with sterile distilled water and kept in sterile conditions.
(§3) Before use, under sterile conditions, the fibers were incubated in complete RPMI with 20% fetal bovine serum (FBS) overnight (packaging time). Cell viability was assessed by trypan blue exclusion assay. Then, a cell suspension of 7.0×10^6 cell/mL at 4°C was injected into the fiber, with the ends thereof immediately heat-sealed. The fibers were cut into 2 cm each, transferred to petri plates and incubated in complete RPMI medium for 24 h prior to implantation in mice. Each cell was injected into one fiber of a different color (HCT-116, yellow fibers; SF-295, blue fibers).
(§4) Each animal received 2 fibers at s.c. site. All incisions were sealed with a surgical stapler.
(§5) Tumor cell proliferation was quantified through the ability of living cells to reduce the yellow dye 3-(4,5-dimethyl-2-thiazolyl)-2,5-diphenyl-2H-tetrazolium bromide (MTT, Sigma Aldrich) to a purple formazan product. For this purpose, the fibers removed from animals were incubated with MTT 1 mg/mL in 6-well plates during 4 h at 37°C, 5% CO2 and 95% humidity. The MTT solution was aspirated; fibers were washed with saline solution containing protamine sulphate 2.5% and incubated in protamine solution overnight at 4°C. Fibers were transferred to 24 well plates, cut into 2 or 3 pieces and put to dry. The formazan was dissolved in […] of DMSO, aliquots (150 uL) were transferred to 96 well plates and absorbance was measured at 595 nm (DTX-880, Beckman Coulter).

BALB/c nude mice = conditions: intraperitoneally for 4 consecutive days, HFA
Procedure: During the HFA, tumor cells (i.e., SF-295 and HCT-116) were cultivated within biocompatible, semipermeable polyvinylidene fluoride hollow fibers (HFs) and subcutaneously (s.c.) implanted within the dorsal portion of BALB/c nude mice. LASSBio-1586 (5b) and 5-Fluorouracil (5-FU), which was the positive control, were administered intraperitoneally for 4 consecutive days. On day 5, the fibers were removed to quantify the antiproliferative activity of 5b and 5-FU.
A total of 26 female BALB/c nude (nu/nu) mice aging 6–8 weeks were obtained from the animal facilities of State University of São Paulo (USP), Faculty of Medicine, São Paulo (SP), Brazil. They were kept in well-ventilated and sterile cages (Alesco, São Paulo) under standard conditions of light (12 h with alternative day and night cycles) and temperature (22±1°C) and were housed with access to commercial sterile rodent stock diet (Nutrilabor, São Paulo, Brazil) and water ad libitum. As previously mentioned procedures are in accordance with guidelines for the welfare of animals in experimental neoplasia and with national and international standard on the care and use of experimental laboratory animals and were approved by the local Ethical Committee on Animal Research (Process No. 102/2007).
Mice were anaesthetized with ketamine (90 mg/kg) - xylazine (4.5 mg/kg) (Sigma Aldrich). Groups were divided into: a) Negative control (DMSO 5%, n = 6); b) Positive control (5-Flouoruracil, 5-FU, 25 mg/kg/day, n = 7) (Sigma Aldrich); c) LASSBio-1586 (5b; 25 mg/kg/day, n = 7); d) LASSBio-1586 (5b; 50 mg/kg/day, n = 6). A small incision in the neck was incised to permit subcutaneous (s.c.) implantation of the fibers in the dorsal part of the animal. Each animal received 2 fibers at s.c. site. All incisions were sealed with a surgical stapler. The test compounds were administered intraperitoneally during 4 consecutive days. On day 5, fibers were removed to quantify the antiproliferative capacity as described above.

SF-295 (glioblastoma) = assay: Hollow Fiber Assay (HFA), SF-295 fibers s.c. in mice; type: in vivo, BALB/c nude mice; conditions: 25 mg/kg/day intraperitoneally, 4 days
Procedure: as §1, §2, §3, §4, §5

[2] = tested on: NCI-H358M (pulmonary bronchio-alveolar carcinoma); assay: In vitro antiproliferative MTT assay, NCI-H358M; type: cell-based; conditions: for SI Lymphocyte/ NCI-H358M: IC50 for human lymphocytes/IC50 for cancer cell line; for IC50: NCI-H358M, Table 2, MTT
human lymphocytes = assay: In vitro antiproliferative assay, human lymphocytes; type: cell-based; conditions: Lymphocyte, Table 2
Procedure: (§6) The antiproliferative activity of compounds 5a–r was determined based on an MTT assay and using CA-4 as standard against the tumor cell lines: HL-60 (human leukemia), SF-295 (human glioblastoma), MDA-MB435 (melanoma), PC3M (prostate cancer), OVCAR-8 (ovaries adenocarcinoma), NCI-H258M (pulmonary bronchio-alveolar carcinoma) and HCT-8 (adenocarcinoma ileocecal) (Table 2). To determine the selectivity index of compounds 5a–r, their antiproliferative profile was also evaluated toward human lymphocytes (Table 2).
To investigate the selective cytotoxic activity of the N-acylhydrazones derivatives (5a–r), their antiproliferative potency was also assessed toward human lymphocytes and the results were compared to the data from CA-4 ([…]). The selectivity index (SI), which was the IC50 for human lymphocytes/IC50 for cancer cell lines after treatment with CA-4 and N-acylhydrazones (5a–r), was calculated, as depicted in Table 3. […] The best comparative selectivity indices (CA-4 vs 5b) were obtained from the SF-295 (SI = 13), MDA-MB435 (SI = 42) and NCI-H258M (SI = 9.5) tumor cell lines, and the worst results were found for OVCAR-8 (SI = 0.5).

MDA-MB435 (melanoma) [3] = assay: In vitro antiproliferative MTT assay, MDA-MB435; type: cell-based; conditions: IC50 for human lymphocytes/IC50 for cancer cell line
Procedure: as §6
(§7) Compounds (0.009–5 µg/mL) were tested for cytotoxic activity against selected cancer cell lines: SF-295 (glioblastoma), HCT-8 (colon), MDAMB-435 (melanoma), HL60 (leukemia), PC3M (prostate cancer), OVCAR-8 (ovaries adenocarcinoma) and NCI-H258M (pulmonary bronchio-alveolar carcinoma). All cell lines were kindly obtained from the National Cancer Institute (Bethesda, MD, USA).Tumor cell proliferation was quantified through the ability of living cells to reduce the yellow dye 3-(4,5-dimethyl-2-thiazolyl)-2,5-diphenyl-2H-tetrazolium bromide (MTT, Sigma Aldrich)) to a purple formazan product and absorbance was measured at 595 nm (DTX-880, Beckman Coulter).

[4] = tested on: HCT-8 (adenocarcinoma ileocecal); assay: In vitro antiproliferative MTT assay, HCT-8; type: cell-based; conditions: for IC50: Homo sapiens, HCT-8; for SI Lymphocyte/ HCT-8: IC50 for human lymphocytes/IC50 for cancer cell line
Procedure: as §6, §7

[5] = Aqueous solubility assay by ultraviolet spectroscopy; type: physicochemical; conditions: water (saturated aqueous solution), thermodynamic from solid, 2 hours at 37°C, read-out: Aq. Solubility
Procedure: Ultraviolet spectroscopy was performed using Femto spectrophotometer. The wavelength used in solubility assay was determined by the -λ max characteristic of each compound. Spectra were analyzed in Femtoscan software. Mass spectrometry was obtained by positive ionization at Bruker AmaZon SL and data analyzed in Compass 1.3.SR2 software.
The solubility assay was performed considering the absorptivity of compounds in ultraviolet spectroscopy as described by Schneider and coworkers. The assay wavelength was determined by the λ max characteristic of each compound.
Saturated aqueous solutions were prepared (0.01 mg/mL) and were kept under stirring for 2 hours at 37°C. The supernatant was filtered in 0,45 µm filters and transferred to a quartz cuvette (10 mm) to spectra acquisition.
Solubility was determined by linear regression using as graph plots, solutions prepared by dilutions of the original solution in methanol. The data were obtained in triplicates and the mean values were used to the graph plots. The correlation coefficient (R^2) values were between 0.9972 and 0.9999.

MDA-MB435 (melanoma) [6] = assay: In vitro antiproliferative MTT assay, MDA-MB435; type: cell-based; conditions: Homo sapiens, MDA-MB-435
[7] = tested on: SF-295 (human glioblastoma); assay: In vitro antiproliferative MTT assay, SF-295; type: cell-based; conditions: for IC50: Homo sapiens, SF-295, read-out: IC50 SF295; for SI Lymphocyte/ SF-295: IC50 for human lymphocytes/IC50 for cancer cell line
Procedure: as §6, §7

[8] = tested on: OVCAR-8 (ovaries adenocarcinoma); assay: In vitro antiproliferative MTT assay, OVCAR-8; type: cell-based; conditions: for IC50: Homo sapiens, OVCAR-8, Table 2, MTT; for SI Lymphocyte/ OVCAR-8: IC50 for human lymphocytes/IC50 for cancer cell line
Procedure: as §6, §7

PC3M (prostate cancer) = assay: In vitro antiproliferative MTT assay, PC3M; type: cell-based; conditions: for IC50: Homo sapiens, PC-3M, Table 2, MTT; for SI Lymphocyte/ PC3M: IC50 for human lymphocytes/IC50 for cancer cell line
Procedure: as §6, §7

HL-60 (human leukemia) = assay: In vitro antiproliferative MTT assay, HL-60; type: cell-based; conditions: for IC50: Homo sapiens, HL-60; for SI Lymphocyte/ HL-60: IC50 for human lymphocytes/IC50 for cancer cell line
Procedure: as §6, §7

tumor cell lines = assay: In vitro antiproliferative MTT assay, tumor cell lines (summary over the panel); type: cell-based; conditions: for cytotoxic activity (in words): HL-60, SF296, HCT-8 and MDA-MB435 tumor cells
Procedure: as §6, §7

SMILES | SI Lymphocyte/ NCI-H358M [2] | IC50 [2] [µM] | IC50 (human lymphocytes) [µM] | SI Lymphocyte/ MDA-MB345 (MDA-MB435 (melanoma) [3]) | IC50 ([4]; Table 2, MTT) [µM] | SI Lymphocyte/ HCT-8 [4] | solubility at 2 h [5] [µg/mL] | IC50 (MDA-MB435 (melanoma) [6]; Table 2, MTT) [µM] | IC50 ([7]; Table 2, MTT) [µM] | SI Lymphocyte/ SF-295 [7] | IC50 [8] [µM] | SI Lymphocyte/ OVCAR-8 [8] | IC50 (PC3M (prostate cancer)) [µM] | SI Lymphocyte/ PC3M (PC3M (prostate cancer)) | IC50 (HL-60 (human leukemia); Table 2, MTT) [µM] | SI Lymphocyte/ HL-60 (HL-60 (human leukemia)) | melting point [°C] | cytotoxic activity (in words) (tumor cell lines) | IC50 ([4]; Table 4) [µM] | IC50 (MDA-MB435 (melanoma) [6]; Table 4) [µM] | also measured
O=c1[nH]cc(F)c(=O)[nH]1 [Compound 5-FU, 5-Fluorouracil, reference compound] | – | – | – | – | – | – | – | – | – | – | – | – | – | – | – | – | – | – | – | – | Inhibition (%) HCT-116 [1]: 62.08%; Proliferation (OD595 nm) HCT-116 ([1]; mean ± S.E.M.): 0.59±0.10 OD595 nm; deaths of mice during treatment (BALB/c nude mice): no deaths occurred; Inhibition (%) SF-295 (SF-295 (glioblastoma)): 65.40%; Proliferation (OD595 nm) SF-295 (SF-295 (glioblastoma); mean ± S.E.M.): 0.52±0.08 OD595 nm
COc1cc(C(=O)N/N=C/c2cc(C(C)(C)C)c(O)c(C(C)(C)C)c2)cc(OC)c1OC [Compound 5k, (E)-N′-(3,5-di-tert-butyl-4hydroxybenzylidene)-3,4,5-trimetoxybenzohydrazide] | 1 | > 25 | > 56.5 | 1 | > 25 | 1 | 0.0236 (≈ 0.0533 µM) | > 25 | > 25 | 1 | > 25 | 1 | > 25 | 1 | > 25 | 1.1 | 222 to 224 | – | – | – | –
COc1cc(C(=O)N/N=C/c2ccc(-c3ccccc3)cc2)cc(OC)c1OC [Compound 5n, (E)-N′-(biphenyl-4-ylmethylene)-3,4,5-trimethoxyibenzohydrazide] | 1 | > 25 | > 64.1 | 1.0 | > 25 | 1.0 | 0.0606 (≈ 0.155 µM) | > 25 | > 25 | 1.0 | > 25 | 1 | > 25 | 1 | > 25 | 1.0 | 187 to 188 | – | – | – | IC50 (tumor cell lines; summary in text over the cell lines of Table 2, read-out: IC50 (antiproliferative potency over the tumor cell lines)): > 25 µM
COc1cc(C(=O)N/N=C/c2ccc(F)cc2)cc(OC)c1OC [Compound 5p, (E)-N′-(4-fluorobenzylidene) - 3,4,5-trimetoxybenzohyidrazide] | 1.76±0.04 | 2.16 | 3.82 | 2.34±0.06 | 2.02 | 1.85±0.04 | 20.9 (≈ 62.9 µM) | 1.58 | 2.69 | 1.46±0.06 | 0.96 | 4.38±0.38 | 4.48 | 0.89±0.01 | 1.27 | 3.11±0.11 | 181 to 182 | – | – | – | –
COc1cc(C(=O)N/N=C/c2ccc(Cl)cc2)cc(OC)c1OC [Compound 5q, (E)-N′-(4-chlorobenzylidene)-3,4,5-trimetoxybenzohyidrazide] | 0.05±0.005 | 1.05 | 0.06 | 3.07±0.22 | 0.046 | 1.25±0.05 | 28.4 (≈ 81.4 µM) | 0.018 | 0.072 | 0.85±0.05 | 0.024 | 2.75±0.25 | 0.0275 | 2.10±0.10 | 0.036 | 1.85±0.15 | 187 to 188 | – | – | – | –
O=C(N/N=C/c1ccccc1)c1ccccc1 [Compound 9, (E)-N′-benzylidenebenzohydrazide] | – | – | – | – | – | – | – | – | – | – | – | – | – | – | – | – | 211 to 212 | loss of cytotoxic activity | > 25 | > 25 | IC50 ([7]; Table 4): > 25 µM; IC50 (HL-60 (human leukemia); Table 4): > 25 µM
COc1cc(/C=N/NC(=O)c2ccccc2)cc(OC)c1OC [Compound 10, (E)-N′-(3,4,5-trimethoxybenzylidene)-benzohydrazide] | – | – | – | – | – | – | – | – | – | – | – | – | – | – | – | – | 211 to 212 | inactive | > 25 | > 25 | IC50 ([7]; Table 4): > 25 µM; IC50 (HL-60 (human leukemia); Table 4): > 25 µM
COc1cc(NC(=O)N/N=C/c2ccccc2)cc(OC)c1OC [Compound 12, (E)-2-benzylidene-N-(3,4,5-trimetoxyphenyl) hydrazinecarboxamide] | – | – | – | – | – | – | – | – | – | – | – | – | – | – | – | – | 217 | inactive | > 25 | > 25 | IC50 ([7]; Table 4): > 25 µM; IC50 (HL-60 (human leukemia); Table 4): > 25 µM
